The data set is described as follows: skin irritability (stated in words, no method described). The note with it: the vinyl ether itself.

We go through one compound from patent US9156762B2, “4,4-bis[(ethenyloxy)methyl]cyclohexene and method for producing same” (Nippon Carbide Industries Co., Inc., priority 2011, dated 2015).

In the case of `C=COCC1(COC=C)CC=CCC1` [4,4-bis[(ethenyloxy)methyl]cyclohexene], the skin irritability result was “low”.
